Experimental data: patent US20020025925A1, “Combination therapy” (priority 1996, published 2002)

How the values were obtained:
[1] = tested on: rat adjuvant-induced arthritis; test: Rat adjuvant-induced arthritis model; format: in vivo
Experimental: Mean of 10 readings was recorded.
Drugs were formulated fresh for each administration.

[2] = Ex vivo bioassay of blood concentration after oral administration; parameters: species or system rat; settings: 10 mg/kg oral, suspension in PBS/Tween, +/- CyA 0.3 mg/kg, 0.5-24 hrs, n=6
Experimental: Compound 1 (10 mg/kg)±CyA (0.3 mg/kg) (in PBS/0.1% Tween 80™] was administered to healthy male Lewis rats (as above). Blood samples (0.5 ml into a syringe containing 0.1 ml acid citrate dextroset as anticoagulant) were removed from the ventrcolateral tail vein of the halothane anaestetised rat at t=prebleed, 0.5, 1, 2, 6 and 24 hrs. 3 mls methanol was added to each blood sample, mixed and centrifuged at 3000 r.p.m. for 15 minutes (using Beckman GPKR centrifuge). 2.0 ml of the methanol supernatant was removed and evaporated dry. The pellet was redisolved in 200 μl DMSO (dimethylsulphoxide). An aliquot of the solubilised pellet was assayed against fibroblast collagenase using ^14C collagen as substrate, as follows:
Samples were incubated overnight at 37° C. and undigested substrate removed by centrifugation at 11,600 r.p.m. for 15 mins (using Heraeus Biofuge 15). 200 μl of supernatant was tested by liquid scintillation spectrophotometry.
A calibration curve for the test compound of interest was run alongside the blood samples. The concentration of the test compound in the blood was then calculated from the calibration curve.

Structure (SMILES)	synergy with cyclosporin A ([1]; Compound 2 5 mg/kg ip, bid with cyclosporin A 0.3 mg/kg ip, bid)	effect on arthritis ([1]; Compound 1 10 mg/ml (so in the source), po, bid, days 10-20)	reducing the paw volume (swelling) ([1]; Compound 1 at doses at or below 10 mg/kg, po, bid (data not shown))	blood concentration of Compound 1 with versus without CyA [2]
CNC(=O)[C@H](Cc1ccccc1)NC(=O)[C@H](CC(C)C)[C@H](CSc1cccs1)C(=O)NO [Compound 2, [4-(N-Hydroxyamino)-2R-isobutyl-3S-(thiophenylthiomethyl)succinyl]-L-phenylalanine-N-methylamide]	act in synergy			
CCC[C@H](C(=O)NO)[C@@H](CC(C)C)C(=O)N[C@H](C(=O)NC)C(C)(C)C [Compound 1, 3R-(2,2-Dimethyl-1S-methylcarbamoyl-propylcarbamoyl)-5-methyl-2S-2-propyl-hexanohydroxamic acid]		very little or no effect	ineffective	equivalent
